Data on one molecule can be found in patent US12622915B2, “Methods of treating PDE IV-mediated diseases or conditions” (Vanda Pharmaceuticals Inc., priority 2020, dated 2026).

What all share (details): N=2, Example 3
One test addresses T1, Phosphodiesterase PDE2A (Homo sapiens, UniProt O00408).
T1 construct: host or cells: insect Sf9 cells
The test is described as follows: Phosphodiesterase PDE2A enzyme assay. Type of test: biochemical. From the text: (§1) Reference standards are run as an integral part of each assay to ensure the validity of the results obtained. Reference Compounds: • Phosphodiesterase PDE10A2 Papaverine • Phosphodiesterase PDE11A4 Dipyridamole • Phosphodiesterase PDE1A MMPX • Phosphodiesterase PDE2A EHNA • Phosphodiesterase PDE3A Cilostamide • Phosphodiesterase PDE4A1A Rolipram • Phosphodiesterase PDE4B1 Rolipram • Phosphodiesterase PDE5A Zaprinast • Phosphodiesterase PDE6 Zaprinast • Phosphodiesterase PDE7A IBMX • Phosphodiesterase PDE7B IBMX • Phosphodiesterase PDE8A1 Dipyridamole • Phosphodiesterase PDE9A2 Zaprinast
(§2) Phosphodiesterase PDE4A1A; Phosphodiesterase PDE4B1; Phosphodiesterase PDE10A2; Phosphodiesterase PDE11A4; Phosphodiesterase PDE2A; Phosphodiesterase PDE3A; Phosphodiesterase PDE7A; Phosphodiesterase PDE7B; and Phosphodiesterase PDE8A1: • Source: Human recombinant insect Sf9 cells • Substrate: 0.10 μM FAM-cAMP • Vehicle: 1.00% DMSO • Significance Crit.: ≥50% of max stimulation or inhibition • Incubation Buffer: 10 mM Tris-HCl, pH 7.2, 10 mM MgCl2, 0.05% NaN3, 0.1% phosphate-free BSA • Quantitation Method: Quantitation of Fluorescein-AMP-IMAP • Pre-Incub. Time/Temp: 15 minutes @25° C. • Incubation Time/Temp: 30 minutes @25° C.
(§3) IC50 values are determined by a non-linear, least squares regression analysis using MathIQ™ (ID Business Solutions Ltd., UK). […]

The next test deals with T2, Phosphodiesterase PDE3A (Homo sapiens, UniProt Q14432).
T2 construct: host or cells: insect Sf9 cells
T2 sequence (Q14432 whole entry): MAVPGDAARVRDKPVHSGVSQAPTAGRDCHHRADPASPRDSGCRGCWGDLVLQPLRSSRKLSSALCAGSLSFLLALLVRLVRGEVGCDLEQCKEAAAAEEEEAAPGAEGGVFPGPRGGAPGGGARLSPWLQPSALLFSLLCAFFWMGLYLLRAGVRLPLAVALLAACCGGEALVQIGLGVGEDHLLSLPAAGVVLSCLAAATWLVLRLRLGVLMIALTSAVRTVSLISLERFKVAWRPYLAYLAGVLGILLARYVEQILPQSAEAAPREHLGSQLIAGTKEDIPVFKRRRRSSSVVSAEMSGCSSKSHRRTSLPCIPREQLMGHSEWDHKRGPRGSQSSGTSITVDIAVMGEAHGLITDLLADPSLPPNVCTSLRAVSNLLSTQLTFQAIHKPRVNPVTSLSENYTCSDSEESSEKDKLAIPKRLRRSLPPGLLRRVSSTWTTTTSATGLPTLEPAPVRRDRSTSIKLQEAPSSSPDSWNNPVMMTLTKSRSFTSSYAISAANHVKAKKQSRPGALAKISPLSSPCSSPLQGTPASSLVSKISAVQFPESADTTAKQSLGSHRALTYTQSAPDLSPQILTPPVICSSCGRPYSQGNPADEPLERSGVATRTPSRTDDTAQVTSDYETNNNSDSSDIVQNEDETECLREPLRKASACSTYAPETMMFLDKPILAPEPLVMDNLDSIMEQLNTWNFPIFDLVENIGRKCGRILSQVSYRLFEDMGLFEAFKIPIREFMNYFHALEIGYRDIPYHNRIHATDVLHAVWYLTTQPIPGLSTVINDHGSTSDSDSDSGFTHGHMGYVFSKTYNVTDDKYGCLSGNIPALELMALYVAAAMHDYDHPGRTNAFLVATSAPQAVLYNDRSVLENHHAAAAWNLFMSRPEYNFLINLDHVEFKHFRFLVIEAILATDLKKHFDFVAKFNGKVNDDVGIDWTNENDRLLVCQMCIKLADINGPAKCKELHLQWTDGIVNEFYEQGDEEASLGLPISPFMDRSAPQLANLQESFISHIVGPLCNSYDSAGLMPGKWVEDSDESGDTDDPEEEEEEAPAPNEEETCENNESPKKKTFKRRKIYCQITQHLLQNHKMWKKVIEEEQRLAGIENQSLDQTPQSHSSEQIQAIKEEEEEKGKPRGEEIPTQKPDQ
The test is described as follows: Phosphodiesterase PDE3A enzyme assay. Type of test: biochemical.
Description: as §1, §2, §3

A further test concerns the target T3, Phosphodiesterase PDE6 (Bos taurus, UniProt P11541+P23439).
T3 construct: Source: Bovine retinal rod outer segments; from tissue; host or cells: bovine retinal rod outer segments
T3 sequence (P11541 2-856 limits assumed): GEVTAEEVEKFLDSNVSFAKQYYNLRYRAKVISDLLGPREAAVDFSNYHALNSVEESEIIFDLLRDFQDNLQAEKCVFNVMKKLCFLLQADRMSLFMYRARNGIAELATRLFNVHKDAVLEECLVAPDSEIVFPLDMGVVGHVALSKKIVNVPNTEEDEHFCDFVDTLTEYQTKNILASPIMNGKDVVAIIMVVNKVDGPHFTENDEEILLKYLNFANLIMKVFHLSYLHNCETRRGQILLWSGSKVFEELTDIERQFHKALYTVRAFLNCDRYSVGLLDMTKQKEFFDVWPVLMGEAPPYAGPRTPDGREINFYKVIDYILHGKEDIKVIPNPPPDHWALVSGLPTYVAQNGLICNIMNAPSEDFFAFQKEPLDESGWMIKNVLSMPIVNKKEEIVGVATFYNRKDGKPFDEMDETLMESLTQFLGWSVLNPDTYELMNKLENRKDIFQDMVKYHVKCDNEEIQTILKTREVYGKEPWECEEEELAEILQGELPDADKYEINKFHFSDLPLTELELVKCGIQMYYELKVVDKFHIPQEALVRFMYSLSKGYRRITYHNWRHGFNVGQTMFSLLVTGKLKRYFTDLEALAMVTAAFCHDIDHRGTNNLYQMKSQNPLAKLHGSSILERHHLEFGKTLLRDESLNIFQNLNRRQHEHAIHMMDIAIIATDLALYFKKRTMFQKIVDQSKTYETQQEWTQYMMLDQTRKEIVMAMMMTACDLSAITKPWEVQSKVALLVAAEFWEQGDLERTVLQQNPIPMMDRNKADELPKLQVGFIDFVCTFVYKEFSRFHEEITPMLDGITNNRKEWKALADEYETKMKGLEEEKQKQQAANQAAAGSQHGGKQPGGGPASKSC
T3 sequence (P23439 2-850 limits assumed): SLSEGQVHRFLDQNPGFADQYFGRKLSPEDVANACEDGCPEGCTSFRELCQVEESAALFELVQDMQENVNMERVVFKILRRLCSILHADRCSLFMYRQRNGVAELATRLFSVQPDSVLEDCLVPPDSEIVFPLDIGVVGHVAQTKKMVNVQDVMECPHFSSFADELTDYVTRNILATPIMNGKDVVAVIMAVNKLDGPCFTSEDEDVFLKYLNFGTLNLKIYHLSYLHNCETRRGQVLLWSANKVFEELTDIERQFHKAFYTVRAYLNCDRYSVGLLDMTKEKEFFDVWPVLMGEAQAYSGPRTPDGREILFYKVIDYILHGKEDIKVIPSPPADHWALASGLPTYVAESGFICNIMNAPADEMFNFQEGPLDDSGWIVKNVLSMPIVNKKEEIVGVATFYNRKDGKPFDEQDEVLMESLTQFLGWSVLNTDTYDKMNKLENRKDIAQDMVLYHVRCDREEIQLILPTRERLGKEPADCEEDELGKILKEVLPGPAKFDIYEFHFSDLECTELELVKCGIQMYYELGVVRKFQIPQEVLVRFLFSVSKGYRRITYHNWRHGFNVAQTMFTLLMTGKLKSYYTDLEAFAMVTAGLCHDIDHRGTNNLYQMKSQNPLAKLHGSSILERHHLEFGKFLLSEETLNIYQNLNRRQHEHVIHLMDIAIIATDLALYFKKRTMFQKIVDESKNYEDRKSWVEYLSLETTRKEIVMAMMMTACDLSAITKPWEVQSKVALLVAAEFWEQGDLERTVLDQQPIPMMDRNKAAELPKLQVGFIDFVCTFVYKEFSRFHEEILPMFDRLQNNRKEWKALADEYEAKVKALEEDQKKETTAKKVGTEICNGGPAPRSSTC
The test is described as follows: Phosphodiesterase PDE6 enzyme assay. The class given is biochemical, bovine.
Description: as §1
Phosphodiesterase PDE6: • Source: Bovine retinal rod outer segments • Substrate: 100 μM [^3H]cGMP+cGMP • Vehicle: 1.00% DMSO • Significance Crit.: ≥50% of max stimulation or inhibition • Incubation Buffer: 50 mM Tris-HCl, pH 7.5, 5 mM MgCl2 • Quantitation Method: Quantitation of [^3H]Guanosine • Pre-Incub. […]
IC50 values are determined by a non-linear, least squares regression analysis using MathIQ™ (ID Business Solutions Ltd., UK). Where inhibition constants (Ki) are presented, the Ki values are calculated using the equation of Cheng and Prusoff (Cheng, Y., Prusoff, W. H., Biochem. Pharmacol. 22:3099-3108, 1973) using the observed IC50 of the tested compound, the concentration of radioligand employed in the assay, and the historical values for the KD of the ligand. […]

The target of a further test is T4, Phosphodiesterase PDE7A (Homo sapiens, UniProt Q13946).
T4 construct: host or cells: insect Sf9 cells
T4 sequence (Q13946 whole entry): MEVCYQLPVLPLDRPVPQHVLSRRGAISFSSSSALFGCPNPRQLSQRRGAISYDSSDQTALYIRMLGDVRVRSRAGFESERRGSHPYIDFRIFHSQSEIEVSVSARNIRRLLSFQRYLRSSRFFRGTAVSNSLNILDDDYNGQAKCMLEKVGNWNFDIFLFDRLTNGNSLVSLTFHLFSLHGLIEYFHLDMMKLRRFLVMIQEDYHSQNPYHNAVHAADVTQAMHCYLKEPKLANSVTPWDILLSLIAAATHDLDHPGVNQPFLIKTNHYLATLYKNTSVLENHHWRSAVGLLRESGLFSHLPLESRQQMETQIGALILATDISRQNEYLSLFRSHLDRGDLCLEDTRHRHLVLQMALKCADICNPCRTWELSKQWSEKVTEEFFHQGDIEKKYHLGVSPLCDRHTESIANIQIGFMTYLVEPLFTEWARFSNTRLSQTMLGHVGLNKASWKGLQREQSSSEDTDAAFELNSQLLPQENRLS
Nature of the test: Phosphodiesterase PDE7A enzyme assay. Type of test: biochemical.
Description: as §1, §2, §3

T1 sequence (O00408 whole entry): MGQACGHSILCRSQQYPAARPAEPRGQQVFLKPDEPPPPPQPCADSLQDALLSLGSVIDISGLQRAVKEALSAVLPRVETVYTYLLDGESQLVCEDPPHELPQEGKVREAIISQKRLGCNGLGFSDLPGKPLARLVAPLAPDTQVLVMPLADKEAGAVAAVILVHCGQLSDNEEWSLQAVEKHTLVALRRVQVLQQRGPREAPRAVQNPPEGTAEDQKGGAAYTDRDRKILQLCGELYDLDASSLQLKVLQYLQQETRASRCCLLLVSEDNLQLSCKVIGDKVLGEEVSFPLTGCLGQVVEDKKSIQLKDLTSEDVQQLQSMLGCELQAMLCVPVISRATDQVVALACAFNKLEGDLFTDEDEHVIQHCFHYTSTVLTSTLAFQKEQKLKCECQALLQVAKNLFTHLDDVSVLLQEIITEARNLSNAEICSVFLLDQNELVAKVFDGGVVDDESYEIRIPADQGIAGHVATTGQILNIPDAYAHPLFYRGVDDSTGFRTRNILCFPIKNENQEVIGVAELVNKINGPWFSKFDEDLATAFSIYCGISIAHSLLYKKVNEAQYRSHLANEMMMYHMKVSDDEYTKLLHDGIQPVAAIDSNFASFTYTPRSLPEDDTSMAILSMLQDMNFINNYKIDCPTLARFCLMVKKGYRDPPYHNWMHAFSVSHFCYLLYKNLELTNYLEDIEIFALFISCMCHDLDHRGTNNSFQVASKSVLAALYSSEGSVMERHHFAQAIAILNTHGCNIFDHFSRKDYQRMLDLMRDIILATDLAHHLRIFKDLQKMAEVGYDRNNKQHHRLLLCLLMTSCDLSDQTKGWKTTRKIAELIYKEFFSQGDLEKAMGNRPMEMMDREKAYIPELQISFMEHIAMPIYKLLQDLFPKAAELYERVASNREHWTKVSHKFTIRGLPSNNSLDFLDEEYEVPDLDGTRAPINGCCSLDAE

Broadly, the inhibition is the relative decrease from the control value, in per cent. Low readings indicate a weak effect, high ones a strong effect. As for `CNc1nc(Nc2ccccc2)nc(OCC(F)(F)C(F)F)n1` [compound of Formula (I), N^2-methyl-N^4-phenyl-6-(2,2,3,3-tetrafluoropropoxy)-1,3,5-triazine-2,4-diamine], the inhibition at 10 µM at Phosphodiesterase PDE2A is 9%; against Phosphodiesterase PDE3A, 6%; against Phosphodiesterase PDE6, 8%; on Phosphodiesterase PDE7A, 7%.
